The target of one test is DGK ζ kinase (Homo sapiens (Human), UniProt Q13574). In words: In vitro DGK inhibition assay: ADP Glo run by Reaction Biology Corp., DGKzeta. It is filed as biochemical. Particulars: 2 nM enzyme, 500 uM DLG, 10-dose duplicate. The method, then: (§1) DGK α and ζ kinases use ATP to phosphorylate the substrate 1,2-dilauroyl-sn-glycerol (DLG). ATP is converted to ADP as a result of this enzymatic reaction.
(§2) After the kinase reaction, an ATP-depletion reagent is added to terminate the kinase reaction and deplete any remaining ATP, leaving only ADP. Second, a detection reagent is added to simultaneously convert ADP to ATP and allow the newly synthesized ATP to be converted to light using a coupled luciferase/luciferin reaction.
(§3) DGK α and ζ kinase ADP Glo assays were ran by Reaction Biology Corp., 1 Great Valley Parkway, Suite 2, Malvern, 19355, PA, USA. Information provided by the service provider are the following: DGK α and ζ kinases were used at 2 nM final concentration. Reactions were carried out at 50 µM ATP. 500 uM of the substrate DLG (Dilauroyl-sn-glycerol) was used.

The subject of a further test is primary human T-cells. In words: IL2 secretion measurements in CD3-stimulated T-cells. The class given is cell-based. Particulars: CD3 condition; for Emax IL2 (% activation): 24 hours, 20 μM reference compound A1 = 100%; for pEC50: Homo sapiens, T-cell, IL2 secretion after 24 hours, read-out: Tcell IL2 CD3 EC50. In a few lines:
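Expanded primary human T-cells (100 k/well, RPMI + 5% human serum) on plate-bound anti-CD3 (donor-titrated) or PBS counter-screen wells, 5–6 pt dose response from 20 or 10 μM top (dilution factor 3.333), 0.2% DMSO final. IL-2 in 24 h supernatant by ProQuantum immunoassay or ELISA. Normalised to DMSO (0%) and 20 μM reference A1 (100%); EC50 and Emax from sigmoidal fit.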

In another test the target is DGK α kinase (Homo sapiens (Human), UniProt P23743). Briefly: In vitro DGK inhibition assay: ADP Glo run by Reaction Biology Corp., DGKalpha. The class given is biochemical. Particulars: 2 nM enzyme, 500 uM DLG, 10-dose duplicate. Here is the method:
as §1, §2, §3

Test [1] has as its target DGKalpha (hDGKalpha(1-735)-N-His) (Homo sapiens (Human), UniProt P23743). Briefly: In vitro DGK inhibition assay, ADP-Glo (in house), DGKalpha. It is filed as biochemical. Particulars: DLG liposomes, 25 μM ATP, 4 nM enzyme, 1 hour reaction.
Test [2] concerns the target DGKzeta (hDGKzeta(1-928)-N-His) (Homo sapiens (Human), UniProt Q13574). Briefly: In vitro DGK inhibition assay, ADP-Glo (in house), DGKzeta. The class given is biochemical. To be noted: DLG liposomes, 50 μM ATP, 2 nM enzyme, 1 hour reaction. On the technique in general: ADP-Glo turns the ADP formed in a reaction into a luminescent signal.

pEC50, pIC50: −log10 of the molar value.

Sequence of DGKalpha (hDGKalpha(1-735)-N-His) (P23743 whole entry): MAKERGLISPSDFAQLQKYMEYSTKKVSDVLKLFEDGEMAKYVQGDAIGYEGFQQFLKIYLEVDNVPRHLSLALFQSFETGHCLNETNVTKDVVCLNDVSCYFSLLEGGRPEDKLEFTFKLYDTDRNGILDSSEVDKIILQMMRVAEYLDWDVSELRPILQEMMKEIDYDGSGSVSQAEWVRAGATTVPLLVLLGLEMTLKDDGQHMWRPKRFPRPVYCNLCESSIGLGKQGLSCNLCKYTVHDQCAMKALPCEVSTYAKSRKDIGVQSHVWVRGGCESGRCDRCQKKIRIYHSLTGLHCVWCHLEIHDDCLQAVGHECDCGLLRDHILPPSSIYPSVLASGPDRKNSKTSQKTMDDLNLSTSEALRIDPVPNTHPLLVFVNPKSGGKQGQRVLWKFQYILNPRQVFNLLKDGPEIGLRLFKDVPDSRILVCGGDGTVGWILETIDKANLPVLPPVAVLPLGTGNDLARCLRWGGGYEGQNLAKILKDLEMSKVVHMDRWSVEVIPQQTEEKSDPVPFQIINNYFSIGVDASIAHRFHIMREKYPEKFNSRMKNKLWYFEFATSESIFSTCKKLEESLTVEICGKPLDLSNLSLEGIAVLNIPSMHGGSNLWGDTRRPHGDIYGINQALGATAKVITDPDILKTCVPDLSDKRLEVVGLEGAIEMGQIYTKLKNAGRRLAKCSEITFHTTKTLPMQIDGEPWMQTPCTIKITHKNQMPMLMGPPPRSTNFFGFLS
Sequence of DGKzeta (hDGKzeta(1-928)-N-His) (Q13574 whole entry): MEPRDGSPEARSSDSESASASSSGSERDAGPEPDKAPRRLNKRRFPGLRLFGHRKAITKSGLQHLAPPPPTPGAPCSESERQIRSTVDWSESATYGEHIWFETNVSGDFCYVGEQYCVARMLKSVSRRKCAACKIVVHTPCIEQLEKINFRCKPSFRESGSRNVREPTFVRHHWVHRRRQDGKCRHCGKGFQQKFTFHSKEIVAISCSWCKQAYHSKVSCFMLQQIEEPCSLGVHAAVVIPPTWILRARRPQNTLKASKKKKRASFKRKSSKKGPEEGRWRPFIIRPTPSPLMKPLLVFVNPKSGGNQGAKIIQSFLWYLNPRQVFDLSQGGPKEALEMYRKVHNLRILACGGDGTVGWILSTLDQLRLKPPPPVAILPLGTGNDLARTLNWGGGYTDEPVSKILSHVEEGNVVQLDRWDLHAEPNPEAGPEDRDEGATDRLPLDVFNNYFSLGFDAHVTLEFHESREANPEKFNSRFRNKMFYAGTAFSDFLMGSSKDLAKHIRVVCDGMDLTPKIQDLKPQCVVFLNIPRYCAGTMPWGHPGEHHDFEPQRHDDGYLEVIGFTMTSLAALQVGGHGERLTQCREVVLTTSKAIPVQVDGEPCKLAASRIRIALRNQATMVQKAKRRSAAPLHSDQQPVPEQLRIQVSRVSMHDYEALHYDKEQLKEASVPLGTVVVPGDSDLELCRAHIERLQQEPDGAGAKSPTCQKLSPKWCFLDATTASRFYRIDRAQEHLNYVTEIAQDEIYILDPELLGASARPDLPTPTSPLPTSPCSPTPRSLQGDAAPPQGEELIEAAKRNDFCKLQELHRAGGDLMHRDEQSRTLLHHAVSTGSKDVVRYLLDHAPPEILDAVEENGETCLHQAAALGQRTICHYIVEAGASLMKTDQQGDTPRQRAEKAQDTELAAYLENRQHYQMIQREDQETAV
Sequence of DGK α kinase (P23743 whole entry): as the sequence (P23743 whole entry) above
Sequence of DGK ζ kinase (Q13574 whole entry): as the sequence (Q13574 whole entry) above

For `CC(C)(C#N)c1cncc(-c2cc3c(cc2F)S(=O)(=O)C[C@H](N)C(=O)N3Cc2ccc(-c3noc(C(F)(F)F)n3)cc2)c1` [Example 23, 2-[5-[(3R)-3-amino-8-fluoro-1,1,4-triketo-5-[4-[5-(trifluoromethyl)-1,2,4-oxadiazol-3-yl]benzyl]-2,3-dihydro-1λ6,5-benzothiazepin-7-yl]-3-pyridyl]-2-methyl-propionitrile], the pIC50 was 6.51 against DGK ζ kinase, 6.43 against DGK α kinase, 4.76 in test [1] and 5.01 in test [2]. Besides, the “Emax IL2 (% activation)” value in the test on primary human T-cells came to 213 % activation. The pEC50 with primary human T-cells is 5.45.
With `CC(C)(c1cncc(-c2cc3c(cc2F)S(=O)(=O)C[C@H](N)C(=O)N3Cc2ccc(-c3noc(C(F)(F)F)n3)cc2)c1)S(C)(=O)=O` [Example 25, (3R)-3-amino-8-fluoro-1,1-diketo-7-[5-(1-mesyl-1-methyl-ethyl)-3-pyridyl]-5-[4-[5-(trifluoromethyl)-1,2,4-oxadiazol-3-yl]benzyl]-2,3-dihydro-1λ6,5-benzothiazepin-4-one], in the test on primary human T-cells, the “Emax IL2 (% activation)” value worked out at 168 % activation and the pEC50 was 5.34. The pIC50 in test [1] was 4.65. This compound showed a pIC50 in test [2] of 4.37.
In the case of `COc1ccc(-c2ccc(CN3C(=O)[C@@H](N)CS(=O)(=O)c4cc(F)c(-c5cnc(C)c(C)c5)cc43)cc2)cc1` [Example 28, (3R)-3-amino-7-(5,6-dimethyl-3-pyridyl)-8-fluoro-5-[[4-(4-methoxyphenyl)phenyl]methyl]-1,1-dioxo-2,3-dihydro-1λ6,5-benzothiazepin-4-one], the “Emax IL2 (% activation)” value in the test with primary human T-cells stood at 237 % activation. Further, in the test on primary human T-cells, the pEC50 is 6.12. The results for the negative-log IC50 (pIC50) in test [1] and in test [2] were 5.51 and 5.00, respectively.
Consider `CC(C)(C)c1cnnc(-c2cc3c(cc2F)S(=O)(=O)C[C@H](N)C(=O)N3Cc2ccc(Cl)cc2)n1` [Example 11, (3R)-3-amino-7-(5-tert-butyl-1,2,4-triazin-3-yl)-5-[(4-chlorophenyl)methyl]-8-fluoro-1,1-dioxo-2,3-dihydro-1λ6,5-benzothiazepin-4-one], for which, in the test on primary human T-cells, the “Emax IL2 (% activation)” value stood at 79 % activation and the negative-log EC50 (pEC50) was 6.92.
With `CC(C)(C)c1cncc(-c2cc3c(cc2F)S(=O)(=O)C[C@H](N)C(=O)N3Cc2ccc(Cl)cc2)c1` [Example 2, (3R)-3-amino-7-(5-tert-butyl-3-pyridyl)-5-[(4-chlorophenyl)methyl]-8-fluoro-1,1-dioxo-2,3-dihydro-1λ6,5-benzothiazepin-4-one], in the test on primary human T-cells, the “Emax IL2 (% activation)” value was determined as 109 % activation and the pEC50 was 6.34.

In general, pIC50 refers to the negative decadic logarithm of the IC50, by convention in mol/L. The term pEC50 denotes the EC50 on a negative log10 scale, so that one unit is a factor of ten.

The values above are taken from US20250236617A1, “BICYCLIC TETRAHYDROTHIAZEPINE DERIVATIVES” (Hoffmann-La Roche Inc., priority 2022, published 2025).
